Assay results as given in patent US20160279101A1, “PHARMACEUTICAL COMPOSITION FOR TREATMENT OF PNEUMONIA ASSOCIATED WITH FUSARIUM FUNGUS” (priority 2013, published 2016).
Values after ≈ are worked out from the molar mass of the structure shown. Where a name gives a salt, the structure may show the parent alone.

Assays:
Assay type in all cases: cell-based
[1] = test system: Fusarium solani; assay: MIC by micro-liquid dilution method (Alamar Blue assay), Fusarium solani; parameters: unit not given here; settings: 10 clinical strains; 35° C., 72 hours; MIC = minimum concentration with IC not less than 80%
Procedure: (§1) The MICs of each type of antifungal agent against Fusarium oxysporum and Fusarium solani were determined. That is, each fungus was cultured at 35° C. for 72 hours using, as a medium, “RPMI 1640/MOPS liquid medium supplemented with 10% Alamar Blue (registered trademark) (pH 7.0)” (see Shinobu Ishigaki et al., The Journal of the Japanese Association for Infectious Diseases, vol. 74(3) (2000) pp. 221-230) according to the micro-liquid dilution method (Alamar Blue assay), which is in accordance with the CLSI standardization and the Japanese Society for Medical Mycology method. Thereafter, O.D. was measured for investigating color change of the oxidation-reduction indicator Alamar Blue, to determine the minimum inhibitory concentration (MIC). That is, the growth inhibition rate (IC) was determined based on the O.D. value, and the minimum concentration of the agent at which an IC of not less than 80% was achieved was determined as MIC. Two strains of Fusarium oxysporum (clinically separated strains; Teikyo University Institute of Medical Mycology), and 10 strains of Fusarium solani (clinically separated strains; Institute of Dermatology (Thailand) and Teikyo University Institute of Medical Mycology) were used.

[2] = test system: Fusarium oxysporum; assay: MIC by micro-liquid dilution method (Alamar Blue assay), Fusarium oxysporum; parameters: unit not given here; settings: 2 clinical strains; 35° C., 72 hours; MIC = minimum concentration with IC not less than 80%
Procedure: as §1

[3] = test system: Trichomonas vaginalis; assay: Growth inhibition of Trichomonas vaginalis in Trichomonas Medium F (neutral red colour, microscopy); settings: for MIC: clinically isolated Trichomonas vaginalis, read-out: minimum inhibitory concentration (MIC); for MIC / Color / Result of observation under the microscope: 72 hours; for Color: 37° C.; for Result of observation under the microscope: inverted microscope
Procedure: Among the compounds represented by General Formula (1), luliconazole was selected for investigation of the effect on Trichomonas vaginalis. That is, 5×10^6 cells of clinically isolated Trichomonas vaginalis were seeded in Trichomonas Medium F, manufactured by Fuji Pharma Industrial Co., Ltd., which contains neutral red as a marker (6.5 mL, contained in a tube). Preculture was performed for 72 hours (preculture). After confirming that the Trichomonas has grown to actively produce acid and to thereby cause changing of the color of neutral red to yellow, 100 μL of the obtained preculture liquid was added to Trichomonas Medium F to be used for main culture. To resulting mixture, 0.5 mL of each test liquid was further added. The number of Trichomonas cells in the preculture liquid at this time was 1.5×10^5 cells/mL. Three types of test liquids, that is, solutions of luliconazole in 10% methanol/saline solution at luliconazole concentrations of 200 μM (final concentration, 35.2 μM), 100 μM (final concentration, 17.6 μM) and 50 μM (final concentration, 8.8 μM), were provided. A control was prepared by adding 0.5 mL of a vehicle as a test liquid. As the vehicle, 10% methanol/saline solution (final concentration, 0 μM) was used. After the addition, each resulting mixture was stirred well, and culture was carried out at 37° C. for 72 hours. Thereafter, the color was judged, and the condition of Trichomonas cells was observed under an inverted microscope.
The same study as in Example 1 was carried out except that lanoconazole was used instead of luliconazole.

[4] = test system: Chlamydia trachomatis (D/UW3/Cx); assay: Anti-intracellular parasite action: Chlamydia trachomatis cultured in HeLa 229 cells, fluorescent staining of inclusion bodies
Procedure: FIG. 1 is a diagram (photographs) illustrating the results of observation of chlamydial inclusion bodies after luliconazole treatment, which observation was carried out by fluorescent staining using a Chlamydia FA reagent “Seiken”.
Using Chlamydia trachomatis (D/UW3/Cx), the anti-intracellular parasite action was examined. That is, Chlamydia trachomatis was cultured using HeLa 229 cells as a host in the presence of a 2-fold dilution series of 8 to 64 μg/mL luliconazole. The culture was carried out using, as a medium, MEM supplemented with 1 μg/mL cyclohexamide and 8% heat-inactivated FBS, at 37° C. under 5% carbon dioxide for 72 hours. Thereafter, inclusion bodies were fluorescently stained in apple green using a Chlamydia FA reagent “Seiken” (manufactured by Denka Seiken Co., Ltd.), and observed under a fluorescence microscope.

[5] = final concentration 8.8 μM, neutral red marker
[6] = final concentration 17.6 μM, neutral red marker
[7] = final concentration 35.2 μM, neutral red marker (yellow = acid production by growing Trichomonas)

| MIC, F. solani (10), lower line of each agent (range) [1] | MIC, F. oxysporum (2), lower line of each agent (range) [2] | SMILES | further results |
| --- | --- | --- | --- |
| >4 | >4 | CCC(C)(C)c1ccc(CC(C)CN2C[C@@H](C)O[C@@H](C)C2)cc1 (stereo partly drawn) [AMO, Amorolfine hydrochloride] |  |
| >4 | >4 | Clc1ccccc1C(c1ccccc1)(c1ccccc1)n1ccnc1 [CTZ, Clotrimazole] |  |
|  | >4 | CC(=O)N1CCN(c2ccc(OCC3COC(Cn4ccnc4)(c4ccc(Cl)cc4Cl)O3)cc2)CC1 (stereo not drawn) [KCZ, Ketoconazole] |  |
| >4 | >4 | OC(Cn1cncn1)(Cn1cncn1)c1ccc(F)cc1F [FCZ, Fluconazole] |  |
| 0.063-0.25 | 0.063-0.13 | N#C/C(=C1/SCC(c2ccccc2Cl)S1)n1ccnc1 (stereo not drawn) [lanoconazole, 4-(2-chlorophenyl)-1,3-dithiolan-2-ylidene-1-imidazolylacetonitrile] | MIC [3]: ~17.6 µM (≈ 5.63 µg/mL); Color [3, 5]: Yellow; Color [3, 6]: Red; Color [3, 7]: Red; Result of observation under the microscope ([3]; final concentration 35.2 μM): No Trichomonas cell was found; growth of Trichomonas ([3]; same study as Example 1, no concentration stated): inhibit the growth of Trichomonas |
| 2-4 |  | C[C@@H]1[C@H](O)[C@@H](C)/C=C/C=C/C=C/C=C/C=C/C=C/C=C/[C@H](O[C@@H]2O[C@H](C)[C@@H](O)[C@H](N)[C@@H]2O)C[C@@H]2O[C@](O)(C[C@@H](O)C[C@@H](O)[C@H](O)CC[C@@H](O)C[C@@H](O)CC(=O)O[C@H]1C)C[C@H](O)[C@H]2C(=O)O [AMB, Amphotericin B] |  |
|  | >4 | C[C@@H](c1ncncc1F)[C@](O)(Cn1cncn1)c1ccc(F)cc1F [VCZ, Voriconazole] |  |
| >4 | >4 | c1ccc(-c2ccc(C(c3ccccc3)n3ccnc3)cc2)cc1 (stereo not drawn) [BFZ, Bifonazole] |  |
| >4 | >4 | CCC(C)n1ncn(-c2ccc(N3CCN(c4ccc(OCC5COC(Cn6cncn6)(c6ccc(Cl)cc6Cl)O5)cc4)CC3)cc2)c1=O (stereo not drawn) [ITZ, Itraconazole] |  |
|  | 0.25-1 | C=C1CCN([C@H](C)[C@](O)(Cn2cncn2)c2ccc(F)cc2F)CC1 [EFCZ, Efinaconazole] |  |
|  | >4 | Clc1ccc(COC(Cn2ccnc2)c2ccc(Cl)cc2Cl)c(Cl)c1 (stereo not drawn) [MCZ, Miconazole nitrate] |  |
| 0.016-0.063 | 0.016-0.031 | N#C/C(=C1/SC[C@@H](c2ccc(Cl)cc2Cl)S1)n1ccnc1 [luliconazole, (R)-(−)-(E)-[4-(2,4-dichlorophenyl)-1,3-dithiolan-2-ylidene]-1-imidazolylacetonitrile] | observation of chlamydial inclusion bodies ([4]; 8 μg/mL, FIG. 1 panel (A)): chlamydial inclusion bodies were found; observation of chlamydial inclusion bodies ([4]; 16 μg/mL, FIG. 1 panel (B)): chlamydial inclusion bodies were found; observation of chlamydial inclusion bodies ([4]; 32 μg/mL, FIG. 1 panel (C)): no inclusion body was found; MIC ([4]; Chlamydia trachomatis, HeLa 229 host cells, 72 hours, 2-fold dilution series 8 to 64 μg/mL, read-out: MIC against Chlamydia trachomatis): 32 µg/mL (≈ 90.3 µM); growth of Trichomonas ([3]; 8.8 μM): inhibited the growth of Trichomonas; MIC [3]: ~8.8 µM (≈ 3.12 µg/mL); Color [3, 5]: Yellow; Color [3, 6]: Red; Result of observation under the microscope ([3]; final concentration 17.6 μM): No Trichomonas cell was found; Color [3, 7]: Red; Result of observation under the microscope ([3]; final concentration 35.2 μM): No Trichomonas cell was found |
